# Like-named read-outs stand apart in the source and are kept apart here.
# Tests used:
# Type in all cases: in vivo
# [1] = test system: Chenopodium album (CHEAL), common lambsquarters; assay: Postemergence herbicide evaluation, growth of Chenopodium album (CHEAL); conditions: Chenopodium album, post-emergence
# [2] = test system: weeds ABUTH, AMATA, AMBEL, CHEAL, ERICA; assay: Postemergence herbicide evaluation, overall average % weed control across ABUTH, AMATA, AMBEL, CHEAL and ERICA; conditions: post-emergence, read-out: Overall Ave % Weed Control
# [3] = test system: Amaranthus rudis (AMATA), tall water hemp; assay: Postemergence herbicide evaluation, growth of Amaranthus rudis (AMATA); conditions: Amaranthus tuberculatus, post-emergence
# [4] = test system: Abutilon theophrasti (ABUTH), velvetleaf; assay: Postemergence herbicide evaluation, growth of Abutilon theophrasti (ABUTH); conditions: Abutilon theophrasti, post-emergence
# [5] = test system: Ambrosia artemisiifolia (AMBEL), common ragweed; assay: Postemergence herbicide evaluation, growth of Ambrosia artemisiifolia (AMBEL); conditions: Ambrosia artemisiifolia, post-emergence
# [6] = test system: glyphosate resistant Conyza canadensis (L.) (ERICA), horseweed; assay: Postemergence herbicide evaluation, growth of Conyza canadensis (ERICA); conditions: Erigeron canadensis, post-emergence, 560 g ae/ha, read-out: Ave. ERICA, percent reduction in plant size relative to the untreated control
# [7] = test system: weeds ABUTH, AMATA, AMBEL, CHEAL, ERICA; assay: Postemergence herbicide evaluation, overall average % weed control (ABUTH, AMATA, AMBEL, CHEAL, ERICA); conditions: post-emergence, 560 g ae/ha, read-out: Overall Ave % Weed Control
compound,measurement,setting,value
O=C(COc1ccc(Cl)cc1Cl)OCCOCCOCCOCCOC(=O)COc1ccc(Cl)cc1Cl [Compound B14],pest or weed control at 280 g/ha,"[1]; 168 h, read-out: Ave. CHEAL",75%
same,pest or weed control at 560 g/ha,"[1]; 168 h, read-out: Ave. CHEAL",77.5%
same,pest or weed control at 280 g/ha,"[1]; 336 h, read-out: Ave. CHEAL",94%
same,pest or weed control at 560 g/ha,"[1]; 336 h, read-out: Ave. CHEAL",98%
same,pest or weed control at 280 g/ha,"[1]; 504 h, read-out: Ave. CHEAL",90%
same,pest or weed control at 560 g/ha,"[1]; 504 h, read-out: Ave. CHEAL",99%
same,pest or weed control at 280 g/ha,[2]; 168 h,75%
same,pest or weed control at 560 g/ha,[2]; 168 h,82.5%
same,pest or weed control at 280 g/ha,[2]; 336 h,87.3%
same,pest or weed control at 560 g/ha,[2]; 336 h,94.2%
same,pest or weed control at 280 g/ha,[2]; 504 h,90.2%
same,pest or weed control at 560 g/ha,[2]; 504 h,97.6%
same,pest or weed control at 280 g/ha,"[3]; 168 h, read-out: Ave. AMATA",72.5%
same,pest or weed control at 560 g/ha,"[3]; 168 h, read-out: Ave. AMATA",90%
same,pest or weed control at 280 g/ha,"[3]; 336 h, read-out: Ave. AMATA",90%
same,pest or weed control at 560 g/ha,"[3]; 336 h, read-out: Ave. AMATA",96%
same,pest or weed control at 280 g/ha,"[3]; 504 h, read-out: Ave. AMATA",70%
same,pest or weed control at 560 g/ha,"[3]; 504 h, read-out: Ave. AMATA",92.5%
same,pest or weed control at 280 g/ha,"[4]; 168 h, read-out: AVE. ABUTH",60%
same,pest or weed control at 560 g/ha,"[4]; 168 h, read-out: AVE. ABUTH",70%
same,pest or weed control at 280 g/ha,"[4]; 336 h, read-out: AVE. ABUTH",77.5%
same,pest or weed control at 560 g/ha,"[4]; 336 h, read-out: AVE. ABUTH",87.5%
same,pest or weed control at 280 g/ha,"[4]; 504 h, read-out: AVE. ABUTH",92%
same,pest or weed control at 560 g/ha,"[4]; 504 h, read-out: AVE. ABUTH",97.5%
same,pest or weed control at 280 g/ha,"[5]; 168 h, read-out: AVE. AMBEL",82.5%
same,pest or weed control at 560 g/ha,"[5]; 168 h, read-out: AVE. AMBEL",87.5%
same,pest or weed control at 280 g/ha,"[5]; 336 h, read-out: AVE. AMBEL",75%
same,pest or weed control at 560 g/ha,"[5]; 336 h, read-out: AVE. AMBEL",89.5%
same,pest or weed control at 280 g/ha,"[5]; 504 h, read-out: AVE. AMBEL",100%
same,pest or weed control at 560 g/ha,"[5]; 504 h, read-out: AVE. AMBEL",100%
COc1ccc(/C=N/OC(=O)COc2ccc(Cl)cc2Cl)cc1 [Compound A31],pest or weed control at 560 g/ha,"[1]; 168 h, 560 g ae/ha, 7 DAA, read-out: Ave. CHEAL, percent reduction in plant size relative to the untreated control",82.5%
same,pest or weed control at 560 g/ha,"[1]; 336 h, 560 g ae/ha, 14 DAA, read-out: Ave. CHEAL, percent reduction in plant size relative to the untreated control",97%
same,pest or weed control at 560 g/ha,"[1]; 504 h, 560 g ae/ha, 21 DAA, read-out: Ave. CHEAL, percent reduction in plant size relative to the untreated control",96%
same,pest or weed control at 560 g/ha,"[6]; 168 h, 7 DAA",82.5%
same,pest or weed control at 560 g/ha,"[6]; 336 h, 14 DAA",89.5%
same,pest or weed control at 560 g/ha,"[6]; 504 h, 21 DAA",98.5%
same,pest or weed control at 560 g/ha,"[3]; 168 h, 560 g ae/ha, 7 DAA, read-out: Ave. AMATA, percent reduction in plant size relative to the untreated control",75%
same,pest or weed control at 560 g/ha,"[3]; 336 h, 560 g ae/ha, 14 DAA, read-out: Ave. AMATA, percent reduction in plant size relative to the untreated control",96%
same,pest or weed control at 560 g/ha,"[3]; 504 h, 560 g ae/ha, 21 DAA, read-out: Ave. AMATA, percent reduction in plant size relative to the untreated control",67.5%
same,pest or weed control at 560 g/ha,"[4]; 168 h, 560 g ae/ha, 7 DAA, read-out: AVE. ABUTH, percent reduction in plant size relative to the untreated control",40%
same,pest or weed control at 560 g/ha,"[4]; 336 h, 560 g ae/ha, 14 DAA, read-out: AVE. ABUTH, percent reduction in plant size relative to the untreated control",57.5%
same,pest or weed control at 560 g/ha,"[4]; 504 h, 560 g ae/ha, 21 DAA, read-out: AVE. ABUTH, percent reduction in plant size relative to the untreated control",70%
same,pest or weed control at 560 g/ha,"[5]; 168 h, 560 g ae/ha, 7 DAA, read-out: AVE. AMBEL, percent reduction in plant size relative to the untreated control",62.5%
same,pest or weed control at 560 g/ha,"[5]; 336 h, 560 g ae/ha, 14 DAA, read-out: AVE. AMBEL, percent reduction in plant size relative to the untreated control",75%
same,pest or weed control at 560 g/ha,"[5]; 504 h, 560 g ae/ha, 21 DAA, read-out: AVE. AMBEL, percent reduction in plant size relative to the untreated control",100%
same,pest or weed control at 560 g/ha,"[7]; 168 h, 7 DAA",68.5%
same,pest or weed control at 560 g/ha,"[7]; 336 h, 14 DAA",83%
same,pest or weed control at 560 g/ha,"[7]; 504 h, 21 DAA",86.4%

# — patent US20260042731A1, “(2,4-DICHLOROPHENOXY)ACETIC ACID ANALOGS” (CORTEVA AGRISCIENCE LLC, priority 2022, published 2026)
